In paper PMC4726752, “Coenzyme Q Biosynthesis: Evidence for a Substrate Access Channel in the FAD-Dependent Monooxygenase Coq6” (PLoS Computational Biology, 2016):

Tests used:
Coq6p-MBP (Coq6p) = molecular target: T1, Coq6p-MBP (Coq6p) (Saccharomyces cerevisiae, UniProt P53318); settings: co-purified cofactor; tetrameric Coq6p-MBP, purified in Tris-HCl pH 7.5
T1 construct: gene COQ6

[1] = molecular target: the molecule itself; test: SEC; gel filtration on Superdex 200 10/300 GL calibrated with standards of known molecular mass (Bio-Rad); purified Coq6p-MBP

T1 sequence (P53318 whole entry): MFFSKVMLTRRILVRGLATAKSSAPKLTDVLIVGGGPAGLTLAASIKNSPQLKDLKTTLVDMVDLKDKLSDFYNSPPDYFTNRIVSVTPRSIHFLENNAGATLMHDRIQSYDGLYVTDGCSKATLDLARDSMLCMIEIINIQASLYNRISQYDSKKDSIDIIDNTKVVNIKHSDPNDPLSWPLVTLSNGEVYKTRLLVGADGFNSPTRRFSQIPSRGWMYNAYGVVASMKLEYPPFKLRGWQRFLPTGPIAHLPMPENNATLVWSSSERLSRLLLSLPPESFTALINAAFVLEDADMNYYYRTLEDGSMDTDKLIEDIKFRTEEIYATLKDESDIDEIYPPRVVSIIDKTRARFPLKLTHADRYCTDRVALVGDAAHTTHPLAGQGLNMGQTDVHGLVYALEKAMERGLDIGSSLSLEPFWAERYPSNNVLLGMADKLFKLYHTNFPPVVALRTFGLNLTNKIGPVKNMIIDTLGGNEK

| Molecule | FAD occupancy per monomer (Coq6p-MBP (Coq6p)) | stoichiometry N [1] |
| --- | --- | --- |
| Cc1cc2nc3c(=O)[nH]c(=O)nc-3n(C[C@H](O)[C@H](O)[C@H](O)COP(=O)(O)OP(=O)(O)OC[C@H]3O[C@@H](n4cnc5c(N)ncnc54)[C@H](O)[C@@H]3O)c2cc1C [FAD] | ~ 85% |  |
| Coq6p-MBP fusion protein (enzyme, S. cerevisiae, UniProt P53318 18-479, looked up, Coq6p, FAD-dependent monooxygenase of ubiquinone biosynthesis, S. cerevisiae, UniProt P53318; coq6 gene optimised for E. coli and cloned in pMAL-c2X between BamHI and EcoRI downstream of malE; Printed mass of the fusion is 96.3 kDa with an MBP tag of 45 kDa, which would fit the whole 479-residue Coq6p (my surmise); source: E. coli BL21 (DE3) co-transformed with pMALc2x-Coq6p and pGro7 …) ATAKSSAPKLTDVLIVGGGPAGLTLAASIKNSPQLKDLKTTLVDMVDLKDKLSDFYNSPPDYFTNRIVSVTPRSIHFLENNAGATLMHDRIQSYDGLYVTDGCSKATLDLARDSMLCMIEIINIQASLYNRISQYDSKKDSIDIIDNTKVVNIKHSDPNDPLSWPLVTLSNGEVYKTRLLVGADGFNSPTRRFSQIPSRGWMYNAYGVVASMKLEYPPFKLRGWQRFLPTGPIAHLPMPENNATLVWSSSERLSRLLLSLPPESFTALINAAFVLEDADMNYYYRTLEDGSMDTDKLIEDIKFRTEEIYATLKDESDIDEIYPPRVVSIIDKTRARFPLKLTHADRYCTDRVALVGDAAHTTHPLAGQGLNMGQTDVHGLVYALEKAMERGLDIGSSLSLEPFWAERYPSNNVLLGMADKLFKLYHTNFPPVVALRTFGLNLTNKIGPVKNMIIDTLGGNEK |  | 4 |
